Test results as given in US10617690B2 (priority 2015, dated 2020).

Legend:
JAK2 protein kinase = JAK2 protein kinase (Homo sapiens, UniProt O60674); assay: biochemical; conditions: 12 uM ATP, 60 min;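 also: recombinant human JAK2 with ULight-labelled JAK-1(Tyr1023) peptide substrate, phosphorylation detected by TR-FRET using Eu-labelled anti-phosphotyrosine antibody, 1% DMSO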
Source text: (§1) Recombinant humanized JAK1, JAK2 and JAK3 protease were all purchased from Life technology. LANCE Ultra ULight™-JAK-1(Tyr1023) peptide and LANCE Eu-W1024 Anti-phosphotyrosine (PT66) were both purchased from PerkinElmer. Envision (PerkinElmer) was used to read a plate.
(§2) The reading was converted into a suppression ratio as follow equation: (%)=(Min−Ratio)/(Max−Min)*100%.

JAK3 = biological target: T1, JAK3 (Homo sapiens, UniProt P52333); assay: In vitro activity test of JAK3 kinase (LANCE Ultra TR-FRET); assay type: biochemical;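 also: recombinant human JAK3 phosphorylating ULight-JAK-1(Tyr1023) peptide at 4 µM ATP, with 1% DMSO, detected by Eu-anti-phosphotyrosine TR-FRET on Envision and converted to percent inhibition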
T1 construct: purchased Life technology
T1 sequence (P52333 1-1124): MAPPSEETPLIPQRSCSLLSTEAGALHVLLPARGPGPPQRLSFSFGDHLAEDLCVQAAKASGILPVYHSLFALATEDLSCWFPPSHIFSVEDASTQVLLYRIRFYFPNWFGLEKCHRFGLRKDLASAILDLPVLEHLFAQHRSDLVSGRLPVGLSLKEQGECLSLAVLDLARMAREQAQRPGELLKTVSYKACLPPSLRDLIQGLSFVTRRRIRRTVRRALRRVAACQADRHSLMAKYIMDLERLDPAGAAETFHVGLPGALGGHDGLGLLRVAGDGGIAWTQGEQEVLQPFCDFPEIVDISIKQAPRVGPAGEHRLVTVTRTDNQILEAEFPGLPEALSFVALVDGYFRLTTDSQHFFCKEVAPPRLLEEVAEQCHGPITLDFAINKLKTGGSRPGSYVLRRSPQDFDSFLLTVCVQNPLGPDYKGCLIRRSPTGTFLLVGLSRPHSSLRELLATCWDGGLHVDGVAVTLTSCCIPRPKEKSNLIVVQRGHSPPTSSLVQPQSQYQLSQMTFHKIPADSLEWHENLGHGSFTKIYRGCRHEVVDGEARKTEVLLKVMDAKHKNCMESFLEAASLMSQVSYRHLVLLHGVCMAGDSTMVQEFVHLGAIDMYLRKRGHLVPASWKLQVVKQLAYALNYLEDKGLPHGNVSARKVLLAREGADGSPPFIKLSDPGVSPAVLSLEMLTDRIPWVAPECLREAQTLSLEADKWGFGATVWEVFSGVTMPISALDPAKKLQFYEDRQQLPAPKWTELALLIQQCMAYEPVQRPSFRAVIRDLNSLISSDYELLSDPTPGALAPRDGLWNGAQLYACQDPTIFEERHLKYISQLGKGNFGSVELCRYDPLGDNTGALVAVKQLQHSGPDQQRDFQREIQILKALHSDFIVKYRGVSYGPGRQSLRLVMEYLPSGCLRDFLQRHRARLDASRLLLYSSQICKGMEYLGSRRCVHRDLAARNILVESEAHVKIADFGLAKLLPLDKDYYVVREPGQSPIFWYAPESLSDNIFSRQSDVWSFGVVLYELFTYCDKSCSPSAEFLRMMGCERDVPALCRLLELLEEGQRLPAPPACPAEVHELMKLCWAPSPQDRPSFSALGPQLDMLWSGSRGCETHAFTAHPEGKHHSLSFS
Experimental: as §1
0.05 nM protein kinase, 50 nM LANCE Ultra ULight™-JAK-1(Tyr1023) peptide, 4 uM ATP, 50 mM HEPES (pH7.5), 10 mM MgCl2, 1 mM EGTA, 2 mM DTT, and 0.01% BRIJ-35.
as §2

JAK1 protein kinase = JAK1 protein kinase (Homo sapiens, UniProt P23458); assay: biochemical; conditions: 38 uM ATP, 90 min
Experimental: In Vitro Activity Test of Jak1, Jak 2 and Jak 3 Kinase
Recombinant humanized JAK1, JAK2 and JAK3 […] were all purchased from Life technology. LANCE Ultra ULight™-JAK-1(Tyr1023) peptide and LANCE Eu-W1024 Anti-phosphotyrosine (PT66) were both purchased from PerkinElmer. Envision (PerkinElmer) was used to read a plate.
Three dilution of a test compound was prepared, and 11 final concentrations were obtained: 10 uM to 0.17 nM. Each concentration had two repeat wells. The content of DMSO in a detection reaction was 1%.
2 nM JAK1 protein kinase, 50 nM LANCE Ultra ULight™-JAK-1(Tyr1023) peptide, 38 uM ATP, 50 mM HEPES (pH7.5), 10 mM MgCl2, 1 mM EGTA, 2 mM DTT, and 0.01% BRIJ-35. Detection plate was White Proxiplate 384-Plus plate (PerkinElmer), the reaction was conducted for 90 min at room temperature, and reaction system was 10 ul.
10 ul detection reagent was added into the reaction plate, wherein the final concentration of LANCE Eu-W1024 Anti-phosphotyrosine (PT66) was 2 nM, the final concentration of EDTA was 10 mM, incubation was conducted for 60 min at room temperature, and the plate was read by the Envision.
The reading was converted into a suppression ratio as follow equation: (%)=([…])/(Max−Min)*100%. IC50 data was detected by 4 parametric curve fitting (Model 205 in XLFIT5, iDBS), see Table 1.

Chain of JAK1 protein kinase (P23458 whole entry): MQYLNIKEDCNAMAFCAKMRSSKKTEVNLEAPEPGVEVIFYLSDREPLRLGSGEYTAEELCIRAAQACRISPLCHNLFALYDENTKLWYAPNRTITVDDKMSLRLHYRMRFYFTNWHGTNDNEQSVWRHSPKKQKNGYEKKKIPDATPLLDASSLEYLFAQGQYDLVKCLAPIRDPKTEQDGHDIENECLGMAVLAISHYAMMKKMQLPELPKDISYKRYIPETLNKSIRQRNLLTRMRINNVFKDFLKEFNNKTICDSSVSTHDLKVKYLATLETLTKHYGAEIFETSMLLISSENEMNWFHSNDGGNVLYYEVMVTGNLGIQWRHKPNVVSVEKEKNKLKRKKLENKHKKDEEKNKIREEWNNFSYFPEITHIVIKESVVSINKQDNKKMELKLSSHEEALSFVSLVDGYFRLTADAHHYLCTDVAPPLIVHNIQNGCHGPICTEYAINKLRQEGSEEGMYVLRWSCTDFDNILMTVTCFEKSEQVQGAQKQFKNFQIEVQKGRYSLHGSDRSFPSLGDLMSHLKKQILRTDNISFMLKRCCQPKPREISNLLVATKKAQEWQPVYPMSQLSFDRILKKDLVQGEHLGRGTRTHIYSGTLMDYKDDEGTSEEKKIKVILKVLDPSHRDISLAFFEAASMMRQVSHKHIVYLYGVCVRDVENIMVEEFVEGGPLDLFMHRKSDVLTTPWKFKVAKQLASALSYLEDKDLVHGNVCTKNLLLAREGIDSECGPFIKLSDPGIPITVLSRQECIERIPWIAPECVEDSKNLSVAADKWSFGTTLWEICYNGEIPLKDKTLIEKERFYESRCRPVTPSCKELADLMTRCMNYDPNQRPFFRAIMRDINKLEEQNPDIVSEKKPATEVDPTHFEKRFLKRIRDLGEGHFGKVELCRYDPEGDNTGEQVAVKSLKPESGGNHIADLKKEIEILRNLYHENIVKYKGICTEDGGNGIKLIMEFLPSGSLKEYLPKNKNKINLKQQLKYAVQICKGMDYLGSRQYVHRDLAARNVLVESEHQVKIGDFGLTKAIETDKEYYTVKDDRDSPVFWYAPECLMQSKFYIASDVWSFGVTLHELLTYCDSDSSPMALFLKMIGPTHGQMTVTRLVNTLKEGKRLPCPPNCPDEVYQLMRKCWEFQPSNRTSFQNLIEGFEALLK
Chain of JAK2 protein kinase (O60674 whole entry): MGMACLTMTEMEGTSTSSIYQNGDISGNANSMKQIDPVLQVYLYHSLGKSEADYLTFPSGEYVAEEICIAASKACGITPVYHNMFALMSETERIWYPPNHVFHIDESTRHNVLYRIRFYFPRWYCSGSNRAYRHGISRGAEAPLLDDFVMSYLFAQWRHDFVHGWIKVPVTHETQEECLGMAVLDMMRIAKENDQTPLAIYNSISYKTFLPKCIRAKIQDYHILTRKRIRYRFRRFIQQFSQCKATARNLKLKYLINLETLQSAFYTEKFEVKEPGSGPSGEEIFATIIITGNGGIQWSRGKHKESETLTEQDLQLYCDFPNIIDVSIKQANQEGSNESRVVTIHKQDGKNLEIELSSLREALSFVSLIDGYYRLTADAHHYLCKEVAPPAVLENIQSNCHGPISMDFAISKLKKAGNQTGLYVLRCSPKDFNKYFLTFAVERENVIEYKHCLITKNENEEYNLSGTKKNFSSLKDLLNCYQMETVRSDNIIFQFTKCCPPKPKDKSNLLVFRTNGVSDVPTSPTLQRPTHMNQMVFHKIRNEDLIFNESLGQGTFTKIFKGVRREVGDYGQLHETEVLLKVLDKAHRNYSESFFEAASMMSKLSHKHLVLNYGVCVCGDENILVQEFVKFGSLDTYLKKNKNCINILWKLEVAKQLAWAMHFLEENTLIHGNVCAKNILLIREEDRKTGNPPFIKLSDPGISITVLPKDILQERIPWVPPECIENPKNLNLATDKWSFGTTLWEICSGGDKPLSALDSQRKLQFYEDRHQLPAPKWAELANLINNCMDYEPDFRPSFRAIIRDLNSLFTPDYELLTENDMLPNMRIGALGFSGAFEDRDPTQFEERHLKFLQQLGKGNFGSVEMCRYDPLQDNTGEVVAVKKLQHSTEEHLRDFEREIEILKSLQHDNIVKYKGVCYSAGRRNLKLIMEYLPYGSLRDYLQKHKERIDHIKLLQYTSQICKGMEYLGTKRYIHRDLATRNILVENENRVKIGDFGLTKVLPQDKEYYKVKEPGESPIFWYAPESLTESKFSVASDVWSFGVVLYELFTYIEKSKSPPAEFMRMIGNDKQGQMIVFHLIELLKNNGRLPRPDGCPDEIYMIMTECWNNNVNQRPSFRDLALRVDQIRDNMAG

IC50 (JAK2 protein kinase) [nM] | IC50 (JAK3) [nM] | IC50 (JAK1 protein kinase) [nM] | Structure (SMILES)
100 to 1000 | 100 to 1000 | 10 to 100 | CN(c1ncnc2[nH]ccc12)N1CCC(NC(=O)CC(F)(F)F)CC1 [WX24]
> 1000 | 100 to 1000 | 100 to 1000 | CN(c1ncnc2[nH]ccc12)N1CCCC(NC(=O)CC#N)C1 (stereo not shown) [WX12]
> 1000 | 100 to 1000 | 100 to 1000 | CC1CCC(C(=O)NCC(F)(F)F)CN1N(C)c1ncnc2[nH]ccc12 (stereo not shown) [WX27, 6-methyl-1-(methyl(7H-pyrrole[2,3-d]pyrimidin-4-yl)amino)-N-(2,2,2-trifluoroethyl)piperidyl-3-formamide]
100 to 1000 | 100 to 1000 | 10 to 100 | CN(c1ncnc2[nH]ccc12)N1CCCC(CNC(=O)CC#N)C1 (stereo not shown) [WX45]
100 to 1000 |  | 10 to 100 | CN(c1ncnc2[nH]ccc12)N1CCC(C(=O)NCC(F)(F)F)C1 (single isomer, unassigned) [WX33, (S or R)-1-[methyl(7H-pyrrolo[2,3-d]pyrimidin-4-yl)amino]-N-(2,2,2-trifluoroethyl)pyrrolidyl-3-formamide]
> 1000 | > 1000 | > 1000 | O=C(CC(F)(F)F)N1CCCN(Nc2ncnc3[nH]ccc23)CC1 [WX35, L-(4-((7H-pyrrolo[2,3-d]pyrimidin-4-yl)amino)-diazepan-1-yl)-3,3,3-trifluorotrifluoropropan-1-one]
100 to 1000 | 100 to 1000 | 10 to 100 | CN(c1ncnc2[nH]ccc12)N1CCCC(CC#N)C1 (stereo not shown) [WX44, 2-[1-[methyl[7H-pyrrole[2,3-d]pyrimidine-4-]amino]-3-piperidyl]acetonitrile]
10 to 100 | 10 to 100 | < 10 | CN(c1ncnc2[nH]ccc12)N1CCC[C@H](C(=O)NCC(F)(F)C(F)(F)F)C1 (single isomer, unassigned) [WX52, (3S or 3R)-1-[methyl(7H-pyrrole[2,3-d]pyrimidine-4-)amino]-N-(2,2,3,3,3-pentafluoropropyl)piperidyl-3-formamide]
> 1000 | 100 to 1000 | 100 to 1000 | O=C(NCC(F)(F)F)C1CCN(Nc2ncnc3[nH]ccc23)CC1 [WX22]
> 1000 | > 1000 | 100 to 1000 | N#CCC(=O)N1CC2CCN(Nc3ncnc4[nH]ccc34)CC2C1 (stereo not shown) [WX55, 3-[5-(7H-pyrrolo[2,3-d]pyrimidin-4-ylamino)-hexahydro-1H-pyrrolo[3,4-c]pyridin-2-yl]3-oxopropanenitrile]
100 to 1000 | 100 to 1000 | 10 to 100 | O=C(NCC(F)(F)F)C1CCCN(N(c2ncnc3[nH]ccc23)C2CC2)C1 (stereo not shown) [WX58, 1-[cyclopropyl(7H-pyrrolo[2,3-d]pyrimidin-4-yl)amino]-N-(2,2,2-trifluoroethyl)piperidyl-3-formamide]
> 1000 | > 1000 | 10 to 100 | O=C(NCC(F)(F)F)C1CN(Nc2ncnc3[nH]ccc23)CCO1 (stereo not shown) [WX40, 4-((7H-pyrrolo[2,3-d]pyrimidin-4-yl)amino)-N-(2,2,2-trifluoroethyl)morpholine-2-form amide]
> 1000 | 100 to 1000 | 100 to 1000 | CN(c1ncnc2[nH]ccc12)N1CCCC(NC(=O)CC(F)(F)F)C1 (stereo not shown) [WX13, 3,3,3-trifluoroethyl-N-(1-(methyl(7H-pyrrolo[2,3-d]pyrimidin-4-yl)amino)piperidyl-3-)propylcarboxamide]
10 to 100 | < 10 | ≤ 10 | CN(c1ncnc2[nH]ccc12)N1CCCC(C(=O)NCC(F)F)C1 (stereo not shown) [WX47, 1-[methyl(7H-pyrrole[2,3-d]pyrimidine-4-)amino]-N-(2,2-difluoroethyl)piperidyl-3-formamide]
10 to 100 | 10 to 100 | < 10 | CSCNC(=O)C1CCCN(N(C)c2ncnc3[nH]ccc23)C1 (stereo not shown) [WX43]
> 1000 | 100 to 1000 | 10 to 100 | N#CCNC(=O)C1CCN(Nc2ncnc3[nH]ccc23)CC1 [WX21]
10 to 100 | 10 to 100 | < 10 | O=C(NCC(F)(F)F)C1CCCN(Nc2ncnc3[nH]ccc23)C1 (stereo not shown) [WX01, 1-((7H-pyrrolo[2,3-d]pyrimidin-4-yl)amino)-N-(2,2,2-trifluoroethyl)piperidyl-3-formamide]
> 1000 | > 1000 | > 1000 | CN(c1ncnc2[nH]ccc12)N1CCCC(C)(C(=O)NCC(F)(F)F)C1 (stereo not shown) [WX38, 3-methyl-11-(methyl(7H-pyrrolo[2,3-d]pyrimidine-4-yl)amino)-N-(2,2,2-trifluoroethyl)piperidyl-3-formamide]
> 1000 | > 1000 | > 1000 | CN(c1ncnc2[nH]ccc12)N1CCC[C@@H](C(=O)NCC(F)(F)C(F)(F)F)C1 (single isomer, unassigned) [WX51, (3R or 3S)-1-[methyl(7H-pyrrole[2,3-d]pyrimidine-4-)amino]-N-(2,2,3,3,3-pentafluoropropyl)piperidyl-3-formamide]
> 1000 | > 1000 | 100 to 1000 | O=C(NCC(F)(F)F)C1CCC2(CC1)CCN(Nc1ncnc3[nH]ccc13)CC2 [WX59]
100 to 1000 | 100 to 1000 | 10 to 100 | CN(c1ccnc2[nH]ccc12)N1CCCC(C(=O)NCC(F)(F)F)C1 (stereo not shown) [WX15, N-(2,2,2-trifluoroethyl)-1-(methyl(1H-pyrrole[2,3-d]pyridin-4-yl)amino)piperidyl-3-formamide]
100 to 1000 | 100 to 1000 | 10 to 100 | CN(c1ncnc2[nH]ccc12)N1CCC(NC(=O)CC#N)CC1 [WX25, 2-cyano-N-(1-(methyl(7H-pyrrolo[2,3-d]pyrimidin-4-yl)amino)piperidin-4-yl)acetamide]
100 to 1000 | 10 to 100 | 10 to 100 | COCNC(=O)C1CCCN(N(C)c2ncnc3[nH]ccc23)C1 (stereo not shown) [WX42]
100 to 1000 | 100 to 1000 | 10 to 100 | CN(c1ncnc2[nH]ccc12)N1CCOC(C(=O)NCC(F)(F)F)C1 (stereo not shown) [WX41, 4-(methyl(7H-pyrrolo[2,3-d]pyrimidin-4-yl)amino)-N-(2,2,2-trifluoroethyl)morpholine-2-formamide]
> 1000 | 100 to 1000 | 100 to 1000 | CN(c1ncnc2[nH]ccc12)N1CCC[C@H](C(=O)NCC(F)F)C1 (single isomer, unassigned) [WX50, (3S or 3R)-1-[methyl(7H-pyrrole[2,3-d]pyrimidine-4-)amino]-N-(2,2-difluoroethyl)piperidyl-3-formamide]
> 1000 | > 1000 | 100 to 1000 | CN(c1ncnc2[nH]ccc12)N1CCCN(C(=O)CC(F)(F)F)CC1 [WX36]
> 1000 | 100 to 1000 | 100 to 1000 | CN(c1ncnc2[nH]ccc12)N1CCCC(CC(=O)NCC#N)C1 (stereo not shown) [WX18]
10 to 100 | 10 to 100 | ≤ 10 | CN(c1ncnc2[nH]ccc12)N1CCCC(C(=O)NCC(F)(F)C(F)(F)F)C1 (stereo not shown) [WX46, 1-[methyl(7H-pyrrole[2,3-d]pyrimidine-4-)amino]-N-(2,2,3,3,3-pentafluoropropyl)piperidyl-3-formamide]
 | 100 to 1000 | 10 to 100 | CN(c1ncnc2[nH]ccc12)N1CCCC(C(=O)NCCC#N)C1 (stereo not shown) [WX16, N-(cyanoethyl)-1-(methyl(1H-pyrrole[2,3-d]pyridyl-4-)amino)piperidyl-3-formamide]
